Literature values as cited in US7276500B2, “Substituted amides, their preparation and use” (Abbott GmbH & Co. KG, priority 1998, dated 2007).

Key:
calpain = conditions: literature statement
cell membranes = conditions: literature statement
[1] = system: calpain (cleavage of pp60src in platelets); conditions: Oda et al., J. Biol. Chem. 1993

Row | Compound | calpain inhibition (calpain) | crossing of cell membranes (cell membranes) | effect on cells (cell membranes) | cleavage of pp60src after activation of platelets [1]
1 | CC(C)C[C@H](NC(=O)[C@H]1O[C@@H]1C(=O)O)C(=O)NCCCCN=C(N)N [E 64] | good calpain inhibitors | cross cell membranes only poorly | only a poor effect on cells | 
2 | CCCC[C@@H](C=O)NC(=O)[C@H](CC(C)C)NC(=O)OCc1ccccc1 [calpeptin] |  |  |  | can be prevented
3 | CC(=O)N[C@@H](CC(C)C)C(=O)N[C@@H](CC(C)C)C(=O)N[C@H](C=O)CCCNC(=N)N [leupeptin] | good calpain inhibitors | cross cell membranes only poorly | only a poor effect on cells | 
4 | Ph—CONH—CH(CH2Ph)—CO—COCOOCH3 | only a weak calpain inhibitor |  |  | 
